# Test system: IL-2/anti-CD3 stimulated STAT5 phosphorylation in CD4+ T cells
# Experiment: Cellular JAK potency assay: inhibition of IL-2 stimulated pSTAT5 in CD4+ T cells
# Format: cell-based
# Conditions: 0.5 h; CD4+ T cells in human PBMCs, 30 min stimulation; read-out: pIC50, inhibition of IL-2 stimulated pSTAT5 (converted)
# Procedure: Assay 9: Cellular JAK Potency Assay: Inhibition of IL-2 Stimulated pSTAT5 in CD4+ T Cells
# The potency of the test compound for inhibition of interleukin-2 (IL-2)/anti-CD3 stimulated STAT5 phosphorylation was measured in CD4-positive (CD4+) T cells in human peripheral blood mononuclear cells (PBMCs) isolated from human whole blood (Stanford Blood Center) using flow cytometry. Because IL-2 signals through JAK, this assay provides a measure of JAK cellular potency. […]
# (2) After cytokine stimulation, cells were fixed with pre warmed fix solution (200 μL; BD Biosciences) for 10 min at 37° C., 5% CO2, washed twice with DPBS buffer (1 mL, Life Technologies), and resuspended in ice cold Perm Buffer III (1000 μL, BD Biosciences) for 30 min at 4° C. […] After incubation, cells were washed twice in FACS buffer before being analyzed using a LSRII flow cytometer (BD Biosciences). To determine the inhibitory potency of test compounds in response to IL-2/anti-CD3, the median fluorescent intensity (MFI) of pSTAT5 was measured in CD4+ T cells. IC50 values were determined from analysis of the inhibition curves of MFI vs compound concentration. Data are expressed as pIC50 (negative decadic logarithm IC50) values.
smiles,measurement,value
"CCc1cc(O)c(F)cc1-c1ccc2c(-c3nc4c([nH]3)CN(C(C)C)[C@H](C(=O)N3CC(N(C)C)C3)C4)n[nH]c2c1 [Example 2, (S)-(3-(dimethylamino)azetidin-1-yl)(2-(6-(2-ethyl-5-fluoro-4-hydroxyphenyl)-1H-indazol-3-yl)-5-isopropyl-4,5,6,7-tetrahydro-3H-imidazo[4,5-c]pyridin-6-yl)methanone]",IC50,~50.1 nM
